# What was measured:
# SARS-CoV-2-NLuc = test: microbe, parasite or virus in culture; type: cell-based, SARS Coronavirus 2; settings: read-out: MPro EC50
# [1] = target: recombinant SARS-CoV-2 Main protease (Mpro) (Severe acute respiratory syndrome coronavirus 2 (2019-nCoV) (SARS-CoV-2), UniProt P0DTD1); test: Cov Mpro Biochemical IC50 Assay; settings: recombinant SARS-CoV-2 Mpro 7.5 nM, fluorogenic peptide substrate 40 μM; read-out: MPro IC50
# SARS-CoV-2 main protease = SARS-CoV-2 main protease (Severe acute respiratory syndrome coronavirus 2 (2019-nCoV) (SARS-CoV-2), UniProt P0DTD1); test: activity comparison of separated atropisomers (assay not given); settings: Isomer 1 versus Isomer 2 after chiral SFC separation; used to assign stereochemistry by analogy to Example 438
Structure (SMILES),EC50 (SARS-CoV-2-NLuc) [nM],IC50 [1] [nM],relative activity of the two separated isomers (SARS-CoV-2 main protease)
"Cn1cc(-c2cccc(Cl)c2-c2cc3[nH]c(=O)n(-c4cncc5ccccc45)c(=O)c3s2)c(C(F)(F)F)n1 (single isomer, unassigned) [Example 447, 6-(2-chloro-6-(1-methyl-3-(trifluoromethyl)-1H-pyrazol-4-yl)phenyl)-3-(isoquinolin-4-yl)thieno[3,2-d]pyrimidine-2,4(1H,3H)-dione]",6.58,4.21,more active isomer
"O=c1[nH]c2cc(-c3ccccc3Cl)sc2c(=O)n1-c1cncc2cccnc12 (single isomer, unassigned) [Example 464, 6-(2-chlorophenyl)-3-(1,6-naphthyridin-8-yl)thieno[3,2-d]pyrimidine-2,4(1H,3H)-dione]",11.5,4.68,more active isomer
"COc1ccc(Cl)c(-c2cc3[nH]c(=O)n(-c4cncc5ccccc45)c(=O)c3s2)c1 (single isomer, unassigned) [Example 465, 6-(2-chloro-5-methoxyphenyl)-3-(isoquinolin-4-yl)thieno[3,2-d]pyrimidine-2,4(1H,3H)-dione]",5.23,< 3.56,more active isomer
"COc1ccc(Cl)c(-c2cc3[nH]c(=O)n(-c4cncc5cccnc45)c(=O)c3s2)c1 (single isomer, unassigned) [Example 468, 6-(2-chloro-5-methoxyphenyl)-3-(1,6-naphthyridin-8-yl)thieno[3,2-d]pyrimidine-2,4(1H,3H)-dione]",< 6.34,< 2.54,more active isomer
"COc1ccc(Cl)c(-c2ccc3c(=O)n(-c4cncc5ccccc45)c(=O)[nH]c3c2)c1 (single isomer, unassigned) [Example 475, 7-(2-chloro-5-methoxy-phenyl)-3-(4-isoquinolyl)-1H-quinazoline-2,4-dione]",28.5,17.1,more active isomer
"Cn1cnc(Cn2c(=O)n(-c3cncc4ccccc34)c(=O)c3sc(-c4ccccc4Cl)cc32)n1 (single isomer, unassigned) [Example 477, 6-(2-chlorophenyl)-3-(4-isoquinolyl)-1-[(1-methyl-1,2,4-triazol-3-yl)methyl]thieno[3,2-d]pyrimidine-2,4-dione]",165,58,more active isomer

# From patent US20240116946A1 (Gilead Sciences, Inc., priority 2022, published 2024)
